This note sets out measurements from PubChem BioAssay (NCI).

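How tested: cells in 96-well plates exposed to compound for 48 hours at five concentrations. GI50: concentration for 50% inhibition of growth. Definition used: TGI = concentration required for complete inhibition of growth.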 A value given as a limit tells only on which side of the number the result lay.

Test systems include COLO 205 colon; HCT-116 colon; HT29 colon; KM12 colon; LOX IMVI melanoma; OVCAR-8 ovarian; RPMI-8226 leukemia; SF-268 CNS; SK-OV-3 ovarian; SW-620 colon.
Common to all, as to test: NCI-60 cell line screen, 48 h

Turning to `O=C1Nc2cccc3cc(NCC(O)CCl)cc1c23` (centres undefined), the TGI in the experiment on COLO 205 colon, in the experiment on HCT-116 colon, in the experiment with HT29 colon, with KM12 colon, with LOX IMVI melanoma and in the experiment on OVCAR-8 ovarian was greater than 100 µM in each case. Besides, the TGI with RPMI-8226 leukemia, with SF-268 CNS, with SK-OV-3 ovarian and in the experiment on SW-620 colon was greater than 100 µM throughout.

On to `Cn1c(=O)c2c(ncn2CN2CCN(Cn3cnc4c3c(=O)n(C)c(=O)n4C)CC2)n(C)c1=O`, for which the TGI was greater than 100 µM in the experiment on COLO 205 colon; 34.6 µM in the experiment with HCT-116 colon; greater than 100 µM in the experiment on HT29 colon; greater than 100 µM in the experiment on KM12 colon; 62.4 µM in the experiment with LOX IMVI melanoma; greater than 100 µM in the experiment with OVCAR-8 ovarian. Moreover, the TGI with RPMI-8226 leukemia was 49.5 µM; with SF-268 CNS, greater than 100 µM; in the experiment with SK-OV-3 ovarian, greater than 100 µM; in the experiment on SW-620 colon, greater than 100 µM.

In the case of `Cc1ccc(NC(=O)Cn2c(Br)nc3c2c(=O)n(C)c(=O)n3C)cc1`, the GI50 with COLO 205 colon was 5.57 µM; with HCT-116 colon it was 2.43 µM; in the experiment on HT29 colon it was 13.8 µM; in the experiment with KM12 colon it was 13.6 µM; in the experiment with LOX IMVI melanoma, 6.27 µM; with OVCAR-8 ovarian it was 4.89 µM. For the same molecule, the GI50 with RPMI-8226 leukemia is 3.25 µM; with SF-268 CNS it was 8.3 µM; in the experiment with SK-OV-3 ovarian, 2.15 µM; in the experiment on SW-620 colon it was 13.5 µM. For the same molecule, the TGI with COLO 205 colon was 19.3 µM; with HCT-116 colon, 8.02 µM; in the experiment with HT29 colon, 51.5 µM; in the experiment with KM12 colon it was 29.9 µM; in the experiment on LOX IMVI melanoma, 19.4 µM; in the experiment on OVCAR-8 ovarian it was 21.6 µM. Further, the TGI with RPMI-8226 leukemia was found to be 19.4 µM; with SF-268 CNS, 22.8 µM; with SK-OV-3 ovarian it was 4.52 µM; in the experiment with SW-620 colon, 33.2 µM.

With `Cn1cc(CNCC2CCN(c3ncc(C(=O)NO)cn3)CC2)c2ccccc21`, the GI50 with COLO 205 colon was less than 0.0104 µM; in the experiment on HCT-116 colon, less than 0.01 µM; in the experiment with HT29 colon, less than 0.01 µM; in the experiment on KM12 colon, 0.0215 µM; in the experiment on LOX IMVI melanoma, 0.0117 µM; in the experiment with OVCAR-8 ovarian, less than 0.01 µM. Besides, the GI50 is less than 0.01 µM with RPMI-8226 leukemia, 0.0259 µM in the experiment with SF-268 CNS, 0.0199 µM with SK-OV-3 ovarian and 0.0147 µM with SW-620 colon. The TGI came out at 0.107 µM in the experiment with COLO 205 colon; 0.0328 µM with HCT-116 colon; 0.587 µM with HT29 colon; 0.589 µM in the experiment with KM12 colon; 0.0325 µM in the experiment with LOX IMVI melanoma; 40.5 µM with RPMI-8226 leukemia. For the same molecule, the TGI with SF-268 CNS was 0.896 µM; in the experiment on SK-OV-3 ovarian, 0.361 µM; in the experiment on SW-620 colon, 2.11 µM.

With `O=C1CC(=O)OC(c2ccc([N+](=O)[O-])cc2)O1`, the GI50 in the experiment with COLO 205 colon was 1.79 µM; in the experiment on HCT-116 colon it was 1.61 µM; with HT29 colon it was 1.9 µM; with KM12 colon, 1.95 µM; in the experiment on LOX IMVI melanoma, 1.68 µM; in the experiment with OVCAR-8 ovarian, 2.42 µM. Also, the GI50 in the experiment with RPMI-8226 leukemia is 2.51 µM; in the experiment with SF-268 CNS, 2.93 µM; with SK-OV-3 ovarian it was 7.05 µM; in the experiment on SW-620 colon it was 1.68 µM. In addition, the TGI was found to be 3.41 µM in the experiment on COLO 205 colon; 3.12 µM with HCT-116 colon; 3.73 µM in the experiment on HT29 colon; 4.03 µM in the experiment with KM12 colon; 3.17 µM in the experiment with LOX IMVI melanoma; 7.83 µM with OVCAR-8 ovarian. Moreover, the TGI in the experiment with RPMI-8226 leukemia stood at 7.33 µM; in the experiment with SF-268 CNS, 11 µM; in the experiment on SK-OV-3 ovarian, 19.2 µM; in the experiment on SW-620 colon, 3.41 µM.

For `Fc1cccc(Cl)c1/C=N\N=C1c2ccccc2-c2ccccc21`, the TGI with COLO 205 colon, in the experiment on HCT-116 colon, in the experiment with HT29 colon, with KM12 colon, in the experiment with LOX IMVI melanoma and with OVCAR-8 ovarian was greater than 100 µM in each case. The TGI in the experiment with RPMI-8226 leukemia, in the experiment with SF-268 CNS, in the experiment on SK-OV-3 ovarian and with SW-620 colon was greater than 100 µM in each case.

Consider `O=C1CCCN1CC#CCN1CCCC1`, for which the GI50 in the experiment with COLO 205 colon, in the experiment on HCT-116 colon, with HT29 colon, in the experiment on KM12 colon, with LOX IMVI melanoma and in the experiment with OVCAR-8 ovarian was greater than 100 µM each time. The GI50 in the experiment with RPMI-8226 leukemia, with SF-268 CNS, with SK-OV-3 ovarian and in the experiment with SW-620 colon was greater than 100 µM throughout. For the same molecule, the TGI in the experiment with COLO 205 colon, in the experiment on HCT-116 colon, in the experiment with HT29 colon, in the experiment on KM12 colon, in the experiment with LOX IMVI melanoma and in the experiment on OVCAR-8 ovarian was greater than 100 µM in each case. Moreover, the TGI with RPMI-8226 leukemia, with SF-268 CNS, with SK-OV-3 ovarian and in the experiment on SW-620 colon was greater than 100 µM throughout.

For `O=C1CCC(O)=C1O`, the TGI with COLO 205 colon, in the experiment on HCT-116 colon, with HT29 colon, with KM12 colon, in the experiment with LOX IMVI melanoma and in the experiment on OVCAR-8 ovarian was greater than 100 µM in each case. Besides, the TGI in the experiment on RPMI-8226 leukemia, with SF-268 CNS, with SK-OV-3 ovarian and with SW-620 colon was greater than 100 µM each time.

Regarding `CC1(C)C2CCC3(C2)CS(=O)(=O)N2OC231` (centres undefined), the TGI in the experiment with COLO 205 colon is 32.9 µM; with HCT-116 colon, greater than 100 µM; in the experiment with HT29 colon, 31.8 µM; in the experiment on KM12 colon, 41.9 µM; in the experiment with LOX IMVI melanoma, 31.1 µM; in the experiment with OVCAR-8 ovarian, 67.2 µM. Besides, the TGI in the experiment with RPMI-8226 leukemia is greater than 100 µM; with SF-268 CNS it was 47.2 µM; in the experiment on SK-OV-3 ovarian, greater than 100 µM; in the experiment on SW-620 colon, 32.9 µM.

On to `COc1ccc(Cl)cc1Nc1nc(C(F)(F)F)ccc1C(=O)N/N=C/c1cc(OC)c(OC)c(OC)c1`, for which the GI50 with COLO 205 colon is 2.62 µM; in the experiment on HCT-116 colon, 2.41 µM; in the experiment on HT29 colon, 3.73 µM; in the experiment with KM12 colon, 3.55 µM; in the experiment with LOX IMVI melanoma it was 1.25 µM; in the experiment with OVCAR-8 ovarian, 1.59 µM. The GI50 in the experiment on RPMI-8226 leukemia is greater than 100 µM; with SF-268 CNS, 1.32 µM; in the experiment on SK-OV-3 ovarian, 3.04 µM; in the experiment on SW-620 colon, 2.79 µM. Also, the TGI in the experiment with COLO 205 colon stood at 8.33 µM; in the experiment on HCT-116 colon, 7.66 µM; in the experiment with HT29 colon, 13.2 µM; in the experiment on KM12 colon it was 20.8 µM; in the experiment with LOX IMVI melanoma, 3.28 µM; in the experiment with OVCAR-8 ovarian, 4.89 µM. Further, the TGI in the experiment on RPMI-8226 leukemia is greater than 100 µM; in the experiment on SF-268 CNS, 5.75 µM; in the experiment on SK-OV-3 ovarian it was 15 µM; in the experiment with SW-620 colon, greater than 100 µM.

For the molecule `COC(=O)C1=C(CS(=O)c2ccccc2[N+](=O)[O-])ON(C)C1c1ccccc1` (centres undefined), the TGI in the experiment with COLO 205 colon is greater than 100 µM; in the experiment on HCT-116 colon, greater than 100 µM; in the experiment with HT29 colon, greater than 100 µM; in the experiment with KM12 colon, greater than 100 µM; in the experiment on LOX IMVI melanoma, 28.9 µM; in the experiment with OVCAR-8 ovarian, 56.2 µM. Moreover, the TGI in the experiment on RPMI-8226 leukemia is greater than 100 µM; in the experiment with SF-268 CNS it was 94.6 µM; in the experiment on SK-OV-3 ovarian it was greater than 100 µM; in the experiment on SW-620 colon it was 88.6 µM.

For `CC1CCN(CC(=O)N2c3ccccc3Sc3cc4ccccc4cc32)CC1`, the TGI with COLO 205 colon, in the experiment with HCT-116 colon, in the experiment with HT29 colon, with KM12 colon, with LOX IMVI melanoma and in the experiment on OVCAR-8 ovarian was greater than 100 µM each time. In addition, the TGI in the experiment with RPMI-8226 leukemia, with SF-268 CNS, with SK-OV-3 ovarian and in the experiment on SW-620 colon was greater than 100 µM each time.

With `O=Cc1ccc(-c2cccs2)s1`, the TGI is 54.8 µM in the experiment with COLO 205 colon; greater than 100 µM with HCT-116 colon; greater than 68.1 µM in the experiment on HT29 colon; greater than 100 µM with KM12 colon; greater than 100 µM with LOX IMVI melanoma; greater than 100 µM in the experiment on OVCAR-8 ovarian. The TGI with RPMI-8226 leukemia, in the experiment with SF-268 CNS, in the experiment with SK-OV-3 ovarian and in the experiment with SW-620 colon was greater than 100 µM each time.
